As a reminder, the IC50 is the concentration at which inhibition is half-maximal.

T1 sequence (Q9NQS5 whole entry): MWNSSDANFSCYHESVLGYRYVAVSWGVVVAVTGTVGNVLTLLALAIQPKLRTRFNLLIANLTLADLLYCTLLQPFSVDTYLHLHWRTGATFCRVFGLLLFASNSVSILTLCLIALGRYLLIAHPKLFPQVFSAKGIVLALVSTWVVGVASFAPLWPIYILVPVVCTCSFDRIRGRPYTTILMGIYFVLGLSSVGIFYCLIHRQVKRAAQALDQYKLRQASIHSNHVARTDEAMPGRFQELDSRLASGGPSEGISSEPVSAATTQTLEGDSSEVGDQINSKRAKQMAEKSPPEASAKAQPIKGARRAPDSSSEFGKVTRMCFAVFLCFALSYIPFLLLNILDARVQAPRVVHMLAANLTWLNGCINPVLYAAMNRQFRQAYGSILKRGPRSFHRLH

This assay has as its target T1, human GPR84 receptor (Homo sapiens, UniProt Q9NQS5).
T1 construct: frozen aliquots prepared by acCELLerate; host or cells: CHO-K1
Kind of assay: cAMP HTRF assay for identification of cellular GPR84 antagonists. To be noted: CHO-K1 cells stably expressing human GPR84; Forskolin + agonist 6-OAU (EC80); average or median values. It counts as cell-based. The text has this: cAMP HTRF® Assay for Identification of Cellular GPR84 Antagonists
By using a Homogenous Time-Resolved Fluorescence (HTRF®) based assay (#62AM5PEJ, Cisbio, Condolet, France) the inhibition of the Gi-coupled GPR84 receptor can be detected. CHO-K1 cells stably expressing human GPR84 receptor (purchased from DiscoveRx, now Eurofins) were used and treated with Forskolin (F6886, Sigma, Germany) to stimulate membrane adenylyl cyclases and thereby unspecific cAMP formation. Activation of the Gi-coupled GPR84 by a natural or small molecule agonist (e.g. 6-n-octyl aminouracile, inhouse) results in inhibition of cellular cAMP formation which can be released again by antagonists to this receptor. Detection and quantification of cellular cAMP levels in this HTRF assay is achieved by interaction between a fluorescent cAMP tracer (cAMP-d2) and an Eu-cryptate labelled anti-cAMP antibody. Following excitation at 337 nm this pairing allows for the generation of a fluorescence resonance energy transfer (FRET) between the partners and results in FRET induced emissions at 665 nm and 620 nm, the latter representing background signal by Eu-cryptate labelled anti-cAMP antibody. Maximal signal is obtained in the absence of any cellular cAMP (no competition for the binding of the tracer to the antibody). Given the combination of the Gi coupling properties of GPR84 and the competitive nature of the detection system agonist treatment should result in an increase in the HTRF signal due to lowered cAMP levels. Any signal decrease in the presence of Forskolin, agonist and compound is indicative of antagonist mediated abrogation of GPR84 signalling.
For the assay, frozen aliquots of CHO-K1 cells expressing hGPR84 (prepared by acCELLerate, Hamburg, Germany) were thawed and a cell suspension (1.67E+06 cells/mL) in assay media (Ham's F12 Nutrient Mix, Thermo Fisher Scientific, Waltham, USA; 5% fetal calf serum, Biomol, Hamburg, Germany) containing cAMP-d2 (dilution 1:20, supplied with the kit #62AM5PEJ, Cisbio, Condolet, France) was prepared. After recovery of cells for 20 minutes at 37° C., 3 μL/well cell suspension including cAMP-d2 were added to a pre-dispensed assay plate (Greiner Bio-One, Kremsmuenster, Austria) containing 50 nl/well test compound in 100% DMSO or 100% DMSO as control. This was followed by a 30 minutes incubation step at room temperature. […] The reaction was stopped by addition of 3 μL/well lysis buffer containing cAMP Eu-Cryptate antibody (dilution 1:20) (both supplied with the kit #62AM5PEJ, Cisbio, Condolet, France). To enable complete lysis, plates were incubated for 60 minutes at room temperature before measurement in an HTRF reader, e.g. a PHERAstar (BMG Labtech, Ortenberg, Germany).
From the fluorescence emissions at 665 nm (FRET) and at 620 nm (background signal of Eu-cryptate) the ratio (emission at 665 nm divided by emission at 620 nm×10000) was calculated and the data were normalized (reaction without test compound, only 100% DMSO=0% inhibition; all other assay components except agonist=100% inhibition). For dose response testing on the same microtiter plate, compounds were tested at 11 different concentrations in the range of 20 μM to 0.07 nM (20 μM, 5.7 μM, 1.6 μM, 0.47 μM, 0.13 μM, 38 nM, 11 nM, 3.1 nM, 0.89 nM, 0.25 and 0.07 nM; dilution series prepared before the assay at the level of the 100-fold conc. stock solutions by serial 1:3.5 dilutions in 100% DMSO) in duplicate values for each concentration. IC50 values were calculated by 4-parameter fitting using a commercial software package (Genedata Screener, Basel, Switzerland).
Examples were tested in selected biological assays one or more times. […]
For `Cc1c(C(=O)NCC2CCC(=O)O2)oc2c1-c1nn(Cc3ccccn3)cc1CC2` (single isomer, unassigned) [Example 39-1], the IC50 worked out at 670 nM. The result for `Cc1c(C(=O)NCC2CCC(=O)O2)oc2c1-c1nn(Cc3ccccn3)cc1CC2` (single isomer, unassigned) [Example 39-2] reads 7050 nM.

For `Cc1c(C(=O)NCc2cc(C3CC3)on2)oc2c1-c1nn(CC3COc4ncccc4O3)cc1CC2` (single isomer, unassigned) [Example 50-1], the IC50 was determined as 110 nM. The result for `Cc1c(C(=O)NCc2cc(C3CC3)on2)oc2c1-c1nn(CC3COc4ncccc4O3)cc1CC2` (single isomer, unassigned) [Example 50-2] reads 17 nM; that for `Cc1c(C(=O)NCC2CCCO2)oc2c1-c1nn(CC3COc4ncccc4O3)cc1CC2` (single isomer, unassigned) [Example 52-1], 95 nM; that for `Cc1c(C(=O)NCC2CCCO2)oc2c1-c1nn(CC3COc4ncccc4O3)cc1CC2` (single isomer, unassigned) [Example 52-2], 16 nM. Take `Cc1c(C(=O)NCc2ccon2)oc2c1-c1nn(CC3COc4ncccc4O3)cc1CC2` (single isomer, unassigned) [Example 55-1]: the IC50 amounted to 340 nM. Consider `Cc1c(C(=O)NCc2ccon2)oc2c1-c1nn(CC3COc4ncccc4O3)cc1CC2` (single isomer, unassigned) [Example 55-2], for which the IC50 stood at 43 nM. Then `Cc1cccc(Cn2cc3c(n2)-c2c(oc(C(=O)NCC4CCCO4)c2C)CC3)n1` (single isomer, unassigned) [Example 66-1], with 63 nM; and `Cc1cccc(Cn2cc3c(n2)-c2c(oc(C(=O)NCC4CCCO4)c2C)CC3)n1` (single isomer, unassigned) [Example 66-2], with 660 nM. Regarding `Cc1c(C(=O)NC[C@H]2CCC3(COC3)O2)oc2c1-c1nn(C[C@H]3COCCO3)cc1C1(CC1)C2` (single isomer, unassigned) [Example 201-1], the IC50 is 683 nM. In the case of `Cc1c(C(=O)NC[C@H]2CCC3(COC3)O2)oc2c1-c1nn(C[C@H]3COCCO3)cc1C1(CC1)C2` (single isomer, unassigned) [Example 201-2], the IC50 came to 112 nM. Regarding `O=C(NC[C@H]1CC(F)(F)CO1)c1oc2c(c1C(F)(F)F)-c1nn(C[C@H]3COCCO3)cc1CC2` (single isomer, unassigned) [Example 222-1, N-{[(2R or 2S)-4,4-difluorooxolan-2-yl]methyl}-2-{[(2S)-1,4-dioxan-2-yl]methyl}-8-(trifluoromethyl)-4,5-dihydro-2H-furo[2,3-g]indazole-7-carboxamide], the concentration for half-maximal inhibition (IC50) was 12 nM. Then `O=C(NC[C@H]1CC(F)(F)CO1)c1oc2c(c1C(F)(F)F)-c1nn(C[C@H]3COCCO3)cc1CC2` (single isomer, unassigned) [Example 222-2, N-{[(2S or 2R)-4,4-difluorooxolan-2-yl]methyl}-2-{[(2S)-1,4-dioxan-2-yl]methyl}-8-(trifluoromethyl)-4,5-dihydro-2H-furo[2,3-g]indazole-7-carboxamide], with 54 nM.

As to `CC1(C)CC[C@H](CNC(=O)c2oc3c(c2C(F)(F)F)-c2nn(C[C@H]4COCCO4)cc2CC3)O1` (single isomer, unassigned) [Example 223-1, N-{[(2R or 2S)-5,5-dimethyloxolan-2-yl]methyl}-2-{[(2S)-1,4-dioxan-2-yl]methyl}-8-(trifluoromethyl)-4,5-dihydro-2H-furo[2,3-g]indazole-7-carboxamide], the IC50 came to 12 nM. Then `CC1(C)CC[C@H](CNC(=O)c2oc3c(c2C(F)(F)F)-c2nn(C[C@H]4COCCO4)cc2CC3)O1` (single isomer, unassigned) [Example 223-2, N-{[(2S or 2R)-5,5-dimethyloxolan-2-yl]methyl}-2-{[(2S)-1,4-dioxan-2-yl]methyl}-8-(trifluoromethyl)-4,5-dihydro-2H-furo[2,3-g]indazole-7-carboxamide], with 51 nM; and `CC1CCC(CNC(=O)c2oc3c(c2C(F)(F)F)-c2nn(CC4COCCO4)cc2CC3)O1` (single isomer, unassigned) [Example 224-1, 2-{[(2S)-1,4-dioxan-2-yl]methyl}-N-{[(2R or 2S,5R or 5S)-5-methyloxolan-2-yl]methyl}-8-(trifluoromethyl)-4,5-dihydro-2H-furo[2,3-g]indazole-7-carboxamide], with 16 nM. Consider `CC1CCC(CNC(=O)c2oc3c(c2C(F)(F)F)-c2nn(CC4COCCO4)cc2CC3)O1` (single isomer, unassigned) [Example 224-2, 2-{[(2S)-1,4-dioxan-2-yl]methyl}-N-{[(2S or 2R,5S or 5R)-5-methyloxolan-2-yl]methyl}-8-(trifluoromethyl)-4,5-dihydro-2H-furo[2,3-g]indazole-7-carboxamide], for which the IC50 stood at 154 nM.

Consider `CC1Cc2oc(C(=O)NC[C@@H]3COCCO3)c(C(F)(F)F)c2-c2nn(C[C@H]3COCCO3)cc21` (single isomer, unassigned) [Example 254-1, (4R or 4S)-N-{[(2R)-1,4-dioxan-2-yl]methyl}-2-{[(2S)-1,4-dioxan-2-yl]methyl}-4-methyl-8-(trifluoromethyl)-4,5-dihydro-2H-furo[2,3-g]indazole-7-carboxamide], for which the IC50 turned out to be 10 nM. For the compound `CC1Cc2oc(C(=O)NC[C@@H]3COCCO3)c(C(F)(F)F)c2-c2nn(C[C@H]3COCCO3)cc21` (single isomer, unassigned) [Example 254-2, (4R or 4S)-N-{[(2R)-1,4-dioxan-2-yl]methyl}-2-{[(2S)-1,4-dioxan-2-yl]methyl}-4-methyl-8-(trifluoromethyl)-4,5-dihydro-2H-furo[2,3-g]indazole-7-carboxamide], the IC50 was found to be 46 nM. Then `C[C@@H]1Cc2oc(C(=O)NC[C@@H]3CCCO3)c(C(F)(F)F)c2-c2nn(C[C@H]3COCCO3)cc21` (single isomer, unassigned) [Example 255-1, (4R or 4S)-2-{[(2S)-1,4-dioxan-2-yl]methyl}-4-methyl-N-{[(2S)-oxolan-2-yl]methyl}-8-(trifluoromethyl)-4,5-dihydro-2H-furo[2,3-g]indazole-7-carboxamide], with 3 nM; and `C[C@@H]1Cc2oc(C(=O)NC[C@@H]3CCCO3)c(C(F)(F)F)c2-c2nn(C[C@H]3COCCO3)cc21` (single isomer, unassigned) [Example 255-2, (4R or 4S)-2-{[(2S)-1,4-dioxan-2-yl]methyl}-4-methyl-N-{[(2S)-oxolan-2-yl]methyl}-8-(trifluoromethyl)-4,5-dihydro-2H-furo[2,3-g]indazole-7-carboxamide], with 16 nM. With `C[C@@H]1Cc2oc(C(=O)NCc3ncco3)c(C(F)(F)F)c2-c2nn(C[C@H]3COCCO3)cc21` (single isomer, unassigned) [Example 256, (4R or 4S)-2-{[(2S)-1,4-dioxan-2-yl]methyl}-4-methyl-N-[(1,3-oxazol-2-yl)methyl]-8-(trifluoromethyl)-4,5-dihydro-2H-furo[2,3-g]indazole-7-carboxamide], the IC50 worked out at 14 nM.

Take `C[C@@H]1Cc2oc(C(=O)NCc3ccn(C)n3)c(C(F)(F)F)c2-c2nn(C[C@H]3COCCO3)cc21` (single isomer, unassigned) [Example 257, (4R or 4S)-2-{[(2S)-1,4-dioxan-2-yl]methyl}-4-methyl-N-[(1-methyl-1H-pyrazol-3-yl)methyl]-8-(trifluoromethyl)-4,5-dihydro-2H-furo[2,3-g]indazole-7-carboxamide]: the IC50 stood at 25 nM.

Source of the values: patent US12570666B2, “Furoindazole derivatives” (Bayer Aktiengesellschaft, priority 2019, dated 2026).
